In ChEMBL document CHEMBL4364276, “Discovery of 4-phenyl-2H-benzo[b][1,4]oxazin-3(4H)-one derivatives as potent and orally active PI3K/mTOR dual inhibitors” (Eur J Med Chem, 2019):
pIC50: −log10 of the molar value.

Key:
[1] = target: Phosphatidylinositol 4,5-bisphosphate 3-kinase catalytic subunit gamma isoform (Homo sapiens, UniProt P48736); assay: Inhibition of recombinant human full length N-terminal DYKDDDDK-tagged PI3Kgamma (1 to 1102 residues) expressed in baculovirus expression system using PIP2 as substrate incubated for 2 hrs by ADP-Glo assay
HeLa = assay: Antiproliferative activity against human HeLa cells assessed as reduction in cell viability incubated for 72 hrs by MTT assay; type: functional, cell-based
[2] = Cmax in Sprague-Dawley rat at 10 mg/kg, po measured upto 24 hrs by LC-MS/MS analysis; type: ADME, organism-based; set-up: dose 10 mg/kg, route oral; settings: in vivo
[3] = AUC (0 to infinity) in Sprague-Dawley rat at 10 mg/kg, po measured upto 24 hrs by LC-MS/MS analysis; type: ADME, organism-based; set-up: dose 10 mg/kg, time infinity, route oral; settings: in vivo
[4] = target: NUAK family SNF1-like kinase 1 (Homo sapiens) (UniProt O60285); assay: Inhibition of human ARK5 at 100 nM using KKKVSRSGLYRSPSMPENLNRPR as substrate by [gamma-33P]-ATP assay
[5] = target: Serine/threonine-protein kinase B-raf (Homo sapiens) (UniProt P15056); assay: Inhibition of human BRAF at 100 nM using MEK1 (K97R) as substrate by [gamma-33P]-ATP assay
[6] = target: Cyclin-dependent kinase 14/Cyclin-Y (Homo sapiens) (UniProt O94921+Q8ND76); assay: Inhibition of human CDK14/cyclin-Y at 100 nM using RB protein as substrate by [gamma-33P]-ATP assay; type: protein-complex assay
[7] = target: CDK7/Cyclin H/MNAT1 (Homo sapiens) (UniProt P51946+P50613+P51948); assay: Inhibition of human CDK7/cyclin-H/MNAT1 at 100 nM using MBP as substrate by [gamma-33P]-ATP assay; type: protein-complex assay
[8] = target: Discoidin domain-containing receptor 2 (Homo sapiens) (UniProt Q16832); assay: Inhibition of human DDR2 at 100 nM using KKSRGDYMTMQIG as substrate by [gamma-33P]-ATP assay
[9] = target: Serine/threonine-protein kinase MRCK gamma (Homo sapiens) (UniProt Q6DT37); assay: Inhibition of human DMPK2 at 100 nM using KKRPQRRYSNVF as substrate by [gamma-33P]-ATP assay
[10] = target: Ephrin type-A receptor 2 (Homo sapiens) (UniProt P29317); assay: Inhibition of human EPHA2 at 100 nM using poly[Glu:Tyr] (4:1) as substrate by [gamma-33P]-ATP assay
[11] = target: Tyrosine-protein kinase JAK3 (Homo sapiens) (UniProt P52333); assay: Inhibition of human JAK3 at 100 nM using poly[Glu:Tyr] (4:1) as substrate by [gamma-33P]-ATP assay
Chain of Tyrosine-protein kinase JAK3 (Homo sapiens) (P52333 whole entry): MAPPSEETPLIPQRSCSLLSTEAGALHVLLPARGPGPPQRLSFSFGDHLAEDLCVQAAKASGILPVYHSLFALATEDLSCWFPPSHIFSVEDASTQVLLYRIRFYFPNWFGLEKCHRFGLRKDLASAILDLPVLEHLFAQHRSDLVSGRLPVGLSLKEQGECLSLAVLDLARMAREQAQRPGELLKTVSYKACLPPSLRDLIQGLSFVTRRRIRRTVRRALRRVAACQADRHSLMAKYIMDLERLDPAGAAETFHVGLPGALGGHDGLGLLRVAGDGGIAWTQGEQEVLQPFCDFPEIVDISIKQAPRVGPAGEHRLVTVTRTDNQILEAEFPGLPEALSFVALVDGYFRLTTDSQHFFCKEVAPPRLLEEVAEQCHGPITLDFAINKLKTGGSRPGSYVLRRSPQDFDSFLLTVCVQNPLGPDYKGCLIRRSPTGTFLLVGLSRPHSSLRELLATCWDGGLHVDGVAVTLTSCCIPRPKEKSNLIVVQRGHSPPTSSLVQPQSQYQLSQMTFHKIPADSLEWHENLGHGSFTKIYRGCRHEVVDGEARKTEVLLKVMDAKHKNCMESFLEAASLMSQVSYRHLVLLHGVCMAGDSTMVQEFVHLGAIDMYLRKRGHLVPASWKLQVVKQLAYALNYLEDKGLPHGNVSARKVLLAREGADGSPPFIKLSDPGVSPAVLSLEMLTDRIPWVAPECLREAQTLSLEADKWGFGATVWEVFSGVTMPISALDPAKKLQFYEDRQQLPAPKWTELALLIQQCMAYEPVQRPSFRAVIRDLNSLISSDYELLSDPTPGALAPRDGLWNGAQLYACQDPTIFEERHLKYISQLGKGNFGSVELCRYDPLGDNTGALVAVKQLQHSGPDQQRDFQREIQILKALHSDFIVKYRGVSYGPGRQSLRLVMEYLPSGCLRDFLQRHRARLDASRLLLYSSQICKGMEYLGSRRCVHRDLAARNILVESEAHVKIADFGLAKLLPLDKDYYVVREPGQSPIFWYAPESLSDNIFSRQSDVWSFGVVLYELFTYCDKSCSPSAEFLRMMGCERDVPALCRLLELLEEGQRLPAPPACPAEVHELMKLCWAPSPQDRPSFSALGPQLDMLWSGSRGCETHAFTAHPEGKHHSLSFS

[12] = target: Mitogen-activated protein kinase 8 (Homo sapiens) (UniProt P45983); assay: Inhibition of human JNK1 at 100 nM using ATF2 as substrate by [gamma-33P]-ATP assay
[13] = target: Mitogen-activated protein kinase 9 (Homo sapiens) (UniProt P45984); assay: Inhibition of human JNK2 at 100 nM using ATF2 as substrate by [gamma-33P]-ATP assay
Chain of Mitogen-activated protein kinase 9 (Homo sapiens) (P45984 whole entry, looked up): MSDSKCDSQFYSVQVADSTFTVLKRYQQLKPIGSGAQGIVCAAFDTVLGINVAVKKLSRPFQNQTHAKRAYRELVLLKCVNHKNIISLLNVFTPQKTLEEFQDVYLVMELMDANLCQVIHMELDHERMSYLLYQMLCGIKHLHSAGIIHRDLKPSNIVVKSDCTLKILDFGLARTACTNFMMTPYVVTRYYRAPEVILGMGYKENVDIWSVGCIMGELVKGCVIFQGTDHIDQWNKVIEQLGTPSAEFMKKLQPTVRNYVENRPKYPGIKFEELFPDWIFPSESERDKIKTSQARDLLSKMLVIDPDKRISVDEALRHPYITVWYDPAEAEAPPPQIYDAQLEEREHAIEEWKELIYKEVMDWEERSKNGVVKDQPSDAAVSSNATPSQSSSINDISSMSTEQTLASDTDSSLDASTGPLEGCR

[14] = target: Vascular endothelial growth factor receptor 2 (Homo sapiens) (UniProt P35968); assay: Inhibition of human KDR at 100 nM using poly[Glu:Tyr] (4:1) as substrate by [gamma-33P]-ATP assay
[15] = target: Tyrosine-protein kinase Lyn (Homo sapiens) (UniProt P07948); assay: Inhibition of human LYN at 100 nM using poly[Glu:Tyr] (4:1) as substrate by [gamma-33P]-ATP assay
Chain of Tyrosine-protein kinase Lyn (Homo sapiens) (P07948 2-512 limits assumed): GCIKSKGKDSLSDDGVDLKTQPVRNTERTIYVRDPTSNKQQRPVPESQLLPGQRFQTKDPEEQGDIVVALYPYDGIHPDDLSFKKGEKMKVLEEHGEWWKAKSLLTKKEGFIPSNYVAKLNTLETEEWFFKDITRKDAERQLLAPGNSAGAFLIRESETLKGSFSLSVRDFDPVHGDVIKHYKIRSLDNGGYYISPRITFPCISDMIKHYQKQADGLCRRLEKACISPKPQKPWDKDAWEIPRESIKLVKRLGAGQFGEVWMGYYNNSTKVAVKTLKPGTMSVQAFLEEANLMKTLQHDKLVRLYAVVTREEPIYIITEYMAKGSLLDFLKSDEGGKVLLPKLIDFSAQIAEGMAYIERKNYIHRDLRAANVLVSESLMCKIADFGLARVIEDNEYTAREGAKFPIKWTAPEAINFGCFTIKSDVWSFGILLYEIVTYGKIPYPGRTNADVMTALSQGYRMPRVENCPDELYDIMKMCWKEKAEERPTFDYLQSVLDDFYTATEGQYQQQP

[16] = target: Serine/threonine-protein kinase MAK (Homo sapiens) (UniProt P20794); assay: Inhibition of human MAK at 100 nM using MBP as substrate by [gamma-33P]-ATP assay
Chain of Serine/threonine-protein kinase MAK (Homo sapiens) (P20794 whole entry): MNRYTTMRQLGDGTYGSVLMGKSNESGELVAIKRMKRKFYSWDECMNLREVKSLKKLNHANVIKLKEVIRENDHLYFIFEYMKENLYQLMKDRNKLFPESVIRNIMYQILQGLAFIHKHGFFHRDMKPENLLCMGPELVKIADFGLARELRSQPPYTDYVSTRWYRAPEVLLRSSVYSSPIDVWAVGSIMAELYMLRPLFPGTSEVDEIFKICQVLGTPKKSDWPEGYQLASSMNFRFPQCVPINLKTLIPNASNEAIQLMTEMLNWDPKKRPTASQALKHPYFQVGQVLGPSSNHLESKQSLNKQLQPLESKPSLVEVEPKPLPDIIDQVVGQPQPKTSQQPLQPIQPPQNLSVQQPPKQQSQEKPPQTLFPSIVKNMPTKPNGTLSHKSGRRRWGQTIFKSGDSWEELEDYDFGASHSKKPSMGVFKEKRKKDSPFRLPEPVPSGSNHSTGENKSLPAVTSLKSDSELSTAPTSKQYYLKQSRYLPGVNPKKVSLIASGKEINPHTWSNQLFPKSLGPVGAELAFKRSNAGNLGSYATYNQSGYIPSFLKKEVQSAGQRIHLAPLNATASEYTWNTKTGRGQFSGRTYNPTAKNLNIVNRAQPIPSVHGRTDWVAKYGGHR

[17] = target: MAP/microtubule affinity-regulating kinase 4 (Homo sapiens) (UniProt Q96L34); assay: Inhibition of human MARK4 at 100 nM using KKKVSRSGLYRSPSMPENLNRPR as substrate by [gamma-33P]-ATP assay
Chain of MAP/microtubule affinity-regulating kinase 4 (Homo sapiens) (Q96L34 whole entry): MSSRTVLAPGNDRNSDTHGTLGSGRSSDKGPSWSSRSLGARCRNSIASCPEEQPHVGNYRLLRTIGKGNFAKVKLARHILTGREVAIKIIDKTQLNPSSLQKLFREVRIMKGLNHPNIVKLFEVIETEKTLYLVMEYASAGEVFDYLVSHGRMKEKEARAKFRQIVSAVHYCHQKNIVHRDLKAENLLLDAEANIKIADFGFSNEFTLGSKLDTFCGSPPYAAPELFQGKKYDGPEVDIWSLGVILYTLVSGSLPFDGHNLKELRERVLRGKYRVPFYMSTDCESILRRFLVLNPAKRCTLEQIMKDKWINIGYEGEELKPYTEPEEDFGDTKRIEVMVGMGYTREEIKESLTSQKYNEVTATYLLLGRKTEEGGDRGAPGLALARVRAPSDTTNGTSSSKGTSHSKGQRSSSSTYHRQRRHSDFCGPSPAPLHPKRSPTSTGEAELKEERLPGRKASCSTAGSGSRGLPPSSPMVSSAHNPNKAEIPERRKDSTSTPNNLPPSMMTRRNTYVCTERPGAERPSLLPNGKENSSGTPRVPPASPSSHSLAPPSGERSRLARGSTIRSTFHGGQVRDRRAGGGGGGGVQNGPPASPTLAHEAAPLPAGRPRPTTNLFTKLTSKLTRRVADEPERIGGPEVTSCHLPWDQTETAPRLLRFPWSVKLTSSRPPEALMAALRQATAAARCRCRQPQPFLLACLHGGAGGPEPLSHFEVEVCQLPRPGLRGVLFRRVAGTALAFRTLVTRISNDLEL

[18] = target: Myosin light chain kinase, smooth muscle (Homo sapiens) (UniProt Q15746); assay: Inhibition of human MLCK at 100 nM using KKLNRTLSFAEPG as substrate by [gamma-33P]-ATP assay
[19] = target: Mitogen-activated protein kinase kinase kinase 11 (Homo sapiens) (UniProt Q16584); assay: Inhibition of human MLK3 at 100 nM using MBP as substrate by [gamma-33P]-ATP assay
Chain of Mitogen-activated protein kinase kinase kinase 11 (Homo sapiens) (Q16584 whole entry, looked up): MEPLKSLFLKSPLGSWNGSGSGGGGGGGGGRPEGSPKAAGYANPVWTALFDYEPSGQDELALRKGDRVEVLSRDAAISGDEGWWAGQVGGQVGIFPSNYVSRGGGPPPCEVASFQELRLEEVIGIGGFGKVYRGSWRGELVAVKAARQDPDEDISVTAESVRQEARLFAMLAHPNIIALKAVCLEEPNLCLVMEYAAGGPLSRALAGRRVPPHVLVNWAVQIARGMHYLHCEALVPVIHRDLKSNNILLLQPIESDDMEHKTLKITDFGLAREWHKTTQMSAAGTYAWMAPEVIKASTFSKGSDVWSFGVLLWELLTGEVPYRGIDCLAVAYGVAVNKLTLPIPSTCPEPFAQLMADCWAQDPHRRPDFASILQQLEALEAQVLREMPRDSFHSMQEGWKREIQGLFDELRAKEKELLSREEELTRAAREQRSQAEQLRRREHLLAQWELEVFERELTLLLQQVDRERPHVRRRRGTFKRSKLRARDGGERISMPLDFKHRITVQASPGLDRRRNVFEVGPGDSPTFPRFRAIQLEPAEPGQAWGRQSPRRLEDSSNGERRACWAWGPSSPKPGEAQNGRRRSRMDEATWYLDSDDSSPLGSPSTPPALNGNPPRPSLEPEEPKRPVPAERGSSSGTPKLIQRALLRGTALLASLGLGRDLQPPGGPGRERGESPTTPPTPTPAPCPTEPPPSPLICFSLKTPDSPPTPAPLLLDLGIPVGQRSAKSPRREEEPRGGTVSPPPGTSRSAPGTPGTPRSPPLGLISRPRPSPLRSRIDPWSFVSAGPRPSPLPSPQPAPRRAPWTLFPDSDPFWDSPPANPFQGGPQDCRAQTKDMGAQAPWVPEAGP

[20] = target: Serine/threonine-protein kinase Nek11 (Homo sapiens) (UniProt Q8NG66); assay: Inhibition of human NEK11 at 100 nM using MBP as substrate by [gamma-33P]-ATP assay
[21] = target: Mitogen-activated protein kinase 12 (Homo sapiens) (UniProt P53778); assay: Inhibition of human p38gamma at 100 nM using MBP as substrate by [gamma-33P]-ATP assay
[22] = target: Platelet-derived growth factor receptor alpha (Homo sapiens) (UniProt P16234); assay: Inhibition of human PDGFRalpha at 100 nM using poly[Glu:Tyr] (4:1) as substrate by [gamma-33P]-ATP assay
[23] = target: Serine/threonine-protein kinase PLK2 (Homo sapiens) (UniProt Q9NYY3); assay: Inhibition of human PLK2 at 100 nM using casein as substrate by [gamma-33P]-ATP assay
Chain of Serine/threonine-protein kinase PLK2 (Homo sapiens) (Q9NYY3 whole entry, looked up): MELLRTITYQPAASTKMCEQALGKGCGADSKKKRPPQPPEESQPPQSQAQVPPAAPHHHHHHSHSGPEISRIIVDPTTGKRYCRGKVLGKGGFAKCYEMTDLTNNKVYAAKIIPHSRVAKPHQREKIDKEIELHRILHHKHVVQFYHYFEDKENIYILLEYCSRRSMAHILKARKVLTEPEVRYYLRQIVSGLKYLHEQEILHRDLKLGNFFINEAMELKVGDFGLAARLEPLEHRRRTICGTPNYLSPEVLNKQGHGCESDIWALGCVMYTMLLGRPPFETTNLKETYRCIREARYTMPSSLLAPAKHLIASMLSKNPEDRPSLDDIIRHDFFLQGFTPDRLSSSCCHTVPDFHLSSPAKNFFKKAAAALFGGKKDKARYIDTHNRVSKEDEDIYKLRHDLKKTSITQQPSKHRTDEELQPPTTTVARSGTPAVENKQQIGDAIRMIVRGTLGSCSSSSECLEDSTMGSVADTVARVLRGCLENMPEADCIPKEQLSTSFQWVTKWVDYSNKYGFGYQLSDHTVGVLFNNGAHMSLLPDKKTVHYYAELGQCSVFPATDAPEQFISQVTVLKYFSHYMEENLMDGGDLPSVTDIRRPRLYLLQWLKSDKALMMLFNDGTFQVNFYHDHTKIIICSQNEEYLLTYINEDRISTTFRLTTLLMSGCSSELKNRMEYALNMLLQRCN

[24] = target: Serine/threonine-protein kinase Sgk2 (Homo sapiens) (UniProt Q9HBY8); assay: Inhibition of human SGK2 at 100 nM using KGSGSGRPRTSSFAEG as substrate by [gamma-33P]-ATP assay
[25] = target: STE20-like serine/threonine-protein kinase (Homo sapiens) (UniProt Q9H2G2); assay: Inhibition of human SLK at 100 nM using Histone H3 as substrate by [gamma-33P]-ATP assay
[26] = target: TRAF2 and NCK-interacting protein kinase (Homo sapiens) (UniProt Q9UKE5); assay: Inhibition of human TNIK at 100 nM using RLGRDKYKTLRQIRQ as substrate by [gamma-33P]-ATP assay
[27] = target: Testis-specific serine/threonine-protein kinase 3 (Homo sapiens) (UniProt Q96PN8); assay: Inhibition of human TSSK3 at 100 nM using KKKVSRSGLYRSPSMPENLNRPR as substrate by [gamma-33P]-ATP assay
[28] = target: Death-associated protein kinase 3 (Homo sapiens) (UniProt O43293); assay: Inhibition of human ZIPK at 100 nM using KKLNRTLSFAEPG as substrate by [gamma-33P]-ATP assay
Homo sapiens = organism: Homo sapiens; assay: Inhibition of human AMPK (A2/B2/G2) at 100 nM using HMRSAMSGLHLVKRR as substrate by [gamma-33P]-ATP assay
[29] = target: Eukaryotic translation initiation factor 2-alpha kinase 3 (Homo sapiens) (UniProt Q9NZJ5); assay: Inhibition of human EIF2AK3 at 100 nM using MBP as substrate by [gamma-33P]-ATP assay

Structure (SMILES): COc1ccc(N2C(=O)COc3ccc(-c4cnc(OC)c(NS(=O)(=O)c5ccc(F)cc5)c4)cc32)cc1
- pIC50 [1]: 7.66
- pIC50 (HeLa): 5.91
- Cmax [2]: 887 ng/mL
- AUC(0-inf) [3]: 4750 ng·h/mL
- inhibition [4]: 0.26%
- inhibition [5]: 5.74%
- inhibition [6]: 4.76%
- inhibition [7]: -3.2%
- inhibition [8]: -1.84%
- inhibition [9]: -9.5%
- inhibition [10]: 19.2%
- inhibition [11]: -4.79%
- inhibition [12]: -0.95%
- inhibition [13]: 22.4%
- inhibition [14]: -3.23%
- inhibition [15]: -1.62%
- inhibition [16]: 16.2%
- inhibition [17]: 1.56%
- inhibition [18]: 7.23%
- inhibition [19]: 3.29%
- inhibition [20]: 17.5%
- inhibition [21]: -3.86%
- inhibition [22]: -1.93%
- inhibition [23]: 4.64%
- inhibition [24]: 5.89%
- inhibition [25]: -0.32%
- inhibition [26]: 15.6%
- inhibition [27]: -8.01%
- inhibition [28]: 0.68%
- inhibition (Homo sapiens): -8.51%
- inhibition [29]: 23.3%
